One experiment relates to TNF-α. The experiment can be described thus: In vitro test of cytokine release: LPS-stimulated human whole blood / PBMCs, TNFα by ELISA. Format: cell-based. The conditions noted are these: for IC50: LPS (E.coli 026:B6) stimulation 4 hours, table does not say whole blood or PBMCs; for TNF-α, value given in %: concentration not given. How it is done:
(§1) They may be administered in one individual dose or in a plurality of doses. The activity spectrum of the compounds as inhibitors of cytokine release was examined using the test systems below, as described by C. Donat and S. Laufer in Arch. Pharm. Pharm. […] 1, 1-40, 2000.
(§2) The reaction is stopped by placing the samples on ice, adding DPBS buffer and then centrifuging at 1000*g for 15 min. The amount of IL-1β and TNFα in the plasma supernatant is then determined by ELISA.
(§3) The cells are washed twice with DPBS buffer, resuspended in macrophage SFM medium and adjusted to a cell count of 1*10^6 cells/ml.
(§4) The reaction is stopped by placing the samples on ice, adding DPBS buffer and then centrifuging at 15 880*g for 12 min. The amount of IL-1β and TNFα in the plasma supernatant is then determined by ELISA.
(In general: ELISA stands for enzyme-linked immunosorbent assay.)

The next experiment deals with IL-1β. The experiment is described as follows: In vitro test of cytokine release: LPS-stimulated human whole blood / PBMCs, IL-1β by ELISA. Format: cell-based. The conditions noted are these: for IC50: LPS (E.coli 026:B6) stimulation 4 hours, table does not say whole blood or PBMCs. How it is done:
as §1, §2, §3, §4

By IC50 is commonly meant the concentration at which inhibition is half-maximal. `Cn1c(S)nc(-c2ccc(F)cc2)c1-c1ccncc1` [Example 1, 4-(4-fluorophenyl)-1-methyl-5-(4-pyridyl)-2-thioimidazole]: the values for the IC50 in the experiment on TNF-α (Table 1) and with IL-1β (Table 1) were 19000 nM and 3600 nM, respectively.
As to `CS(=O)(=O)c1ccc(CSc2nc(-c3ccc(F)cc3)c(-c3ccncc3)n2-c2ccccc2)cc1` [Example 40, 4-(4-Fluorophenyl)-2-(4-methylsulfonyl)benzylthio-1-phenyl-5-(4-pyridyl)imidazole], the IC50 in the experiment on TNF-α (Table 1) was 3400 nM; with IL-1β (Table 1), 1300 nM.
As for `CCCn1c(Sc2ccc(Cl)cc2)nc(-c2ccc(F)cc2)c1-c1ccncc1` [Example 53, 2-(4-Chlorophenyl)thio-4-(4-fluorophenyl)-1-n-propyl-5-(4-pyridyl)-imidazole], the half-maximal inhibitory concentration (IC50) in the experiment on TNF-α (Homo sapiens, Table 1) was 29000 nM; with IL-1β (Homo sapiens, Table 1), 3300 nM.
In the case of `CCCn1c(SCc2ccc(S(C)(=O)=O)cc2)nc(-c2ccc(F)cc2)c1-c1ccncc1` [Example 33, 4-(4-Fluorophenyl)-2-(4-methylsulfonyl)benzylthio-1-n-propyl-5-(4-pyridyl)imidazole], the figures for the IC50 in the experiment with TNF-α (Table 1) and in the experiment on IL-1β (Table 1) were 6800 nM and 720 nM, respectively.
With `CSc1nc(-c2ccc(F)cc2)c(-c2ccncc2)n1C1CC(C)(C)NC(C)(C)C1` [Example 25, 4-(4-Fluorophenyl)-2-methylthio-5-(4-pyridyl)-1-(2,2,6,6-tetramethyl-piperidin-4-yl)imidazole], the half-inhibitory concentration (IC50) came out at 16000 nM in the experiment with TNF-α (Homo sapiens, Table 1) and 850 nM in the experiment on IL-1β (Homo sapiens, Table 1).
In turn, `CCCn1c(S)nc(-c2ccncc2)c1-c1ccc(F)cc1` [Example 59] showed a half-inhibitory concentration (IC50) in the experiment on TNF-α (Table 1) of 83000 nM. The “IL-1β, value given in %” value in the experiment with IL-1β (Table 1, concentration not given) amounted to 16%.
As for `CS(=O)(=O)c1ccc(CSc2nc(-c3ccc(F)cc3)c(-c3ccncc3)n2C2CCCCC2)cc1` [Example 39, 1-Cyclohexyl-4-(4-fluorophenyl)-2-(4-methylsulfonyl)benzylthio-5-(4-pyridyl)imidazole], the IC50 came out at 13000 nM with TNF-α (Table 1) and 1800 nM in the experiment with IL-1β (Table 1).
With `CSc1nc(-c2ccc(F)cc2)c(-c2ccncc2)n1CCCN1CCOCC1` [Example 24, 4-(4-Fluorophenyl)-2-methylthio-1-N-morpholinopropyl-5-(4-pyridyl)-imidazole], the IC50 stood at 2700 nM in the experiment with TNF-α (Homo sapiens, Table 1) and 1000 nM in the experiment on IL-1β (Homo sapiens, Table 1).
Turning to `Fc1ccc(-c2[nH]c(=S)n(Cc3ccccc3)c2-c2ccncc2)cc1` [Example 8, 1-Benzyl-4-(4-fluorophenyl)-5-(4-pyridyl)-2-thioimidazole], the IC50 with TNF-α (Table 1) amounted to 20000 nM; in the experiment on IL-1β (Table 1), 1000 nM.
For `Cc1nc(S)n(-c2ccc(F)cc2)c1-c1ccncc1` [Example 57, 1-(4-Fluorophenyl)-4-methyl-5-(4-pyridyl)imidazole-2-thiol], in the experiment with TNF-α (Table 1), the “TNF-α, value given in %” value is 34%. Also, the half-maximal inhibitory concentration (IC50) with IL-1β (Homo sapiens, Table 1) turned out to be 19000 nM.
For the molecule `OCCCn1c(-c2ccncc2)c(-c2ccc(F)cc2)[nH]c1=S` [Example 17, 4-(4-Fluorophenyl)-1-(3-hydroxypronyl)-5-(4-pyridyl)-2-thioimidazole], the “TNF-α, value given in %” value with TNF-α (Table 1) is 49%. Moreover, in the experiment on IL-1β (Table 1), the IC50 turned out to be 7300 nM.
As to `CCCn1c(SCc2ccc(C)cc2)nc(-c2ccc(F)cc2)c1-c1ccncc1` [Example 30, 4-(4-Fluorophenyl)-2-(4-methylbenzyl)thio-1-n-propyl-5-(4-pyridyl)-imidazole], the IC50 is 22000 nM in the experiment on TNF-α (Homo sapiens, Table 1) and 1300 nM with IL-1β (Homo sapiens, Table 1).
With `CSc1nc(-c2ccc(F)cc2)c(-c2ccnc(NC(C)=O)c2)n1C` [Example 61, 4-(4-Fluorophenyl)-1-methyl-5-(2-acetamido-4-pyridyl)-2-methyl-thioimidazole], the IC50 came out at 870 nM in the experiment on TNF-α (Homo sapiens, Table 2) and 70 nM with IL-1β (Homo sapiens, Table 2).
Regarding `COc1ccc(C(=O)Nc2cc(-c3c(-c4ccc(F)cc4)nc(SC)n3C)ccn2)cc1` [Example 67, 4-([lacuna]-Fluorophenyl)-1-methyl-5-[2-(4-methoxybenzamido)-4-pyridyl]-2-methylthioimidazole], the IC50 was determined as 640 nM with TNF-α (Homo sapiens, Table 2) and 440 nM in the experiment with IL-1β (Homo sapiens, Table 2).
Take `CCn1c(-c2ccncc2)c(-c2ccc(F)cc2)[nH]c1=S` [Example 2, 1-Ethyl-4-(4-fluorophenyl)-5-(4-pyridyl)-2-thioimidazole]: the results for the IC50 with TNF-α (Table 1) and in the experiment on IL-1β (Table 1) were 41000 nM and 1300 nM, respectively.
Consider `CCn1c(SCc2ccc(S(C)(=O)=O)cc2)nc(-c2ccc(F)cc2)c1-c1ccncc1` [Example 27, 1-Ethyl-4-(4-fluorophenyl)-2-(4-methylsulfonyl)benzylthio-5-(4-pyridyl)-imidazole], for which the IC50 with TNF-α (Table 1) came out at 4100 nM; with IL-1β (Table 1), 950 nM.
As to `CCCn1c(SC)nc(-c2ccc(F)cc2)c1-c1ccnc(NC(C)=O)c1` [Example 62, 4-(4-Fluorophenyl)-1-n-propyl-5-(2-acetamido-4-pyridyl)-2-methyl-thioimidazole], the IC50 in the experiment on TNF-α (Homo sapiens, Table 2) was found to be 490 nM; in the experiment on IL-1β (Homo sapiens, Table 2), 120 nM.
For the molecule `CCNc1cc(-c2c(-c3ccc(F)cc3)nc(SC)n2C)ccn1` [Example 73], the IC50 amounted to 350 nM in the experiment with TNF-α (Homo sapiens, Table 2) and 50 nM in the experiment with IL-1β (Homo sapiens, Table 2).
For `Fc1ccc(-c2[nH]c(=S)n(C3CCN(Cc4ccccc4)CC3)c2-c2ccncc2)cc1` [Example 18], the IC50 in the experiment on TNF-α (Table 1) turned out to be 38000 nM; in the experiment with IL-1β (Table 1) it was 5800 nM.
`Fc1ccc(-c2[nH]c(=S)n(-c3ccccc3)c2-c2ccncc2)cc1` [Example 7, 4-(4-Fluorophenyl)-1-phenyl-5-(4-pyridyl)-2-thioimidazole]: the IC50 was 37000 nM in the experiment on TNF-α (Table 1) and 2300 nM in the experiment on IL-1β (Table 1).
For the molecule `CSc1nc(-c2ccc(F)cc2)c(-c2ccnc(NC(C)=O)c2)n1C1CC(C)(C)NC(C)(C)C1` [Example 63, 4-(4-Fluorophenyl)-1-(2,2,6,6-tetramethylpiperidin-4-yl)-5-(2-acetamido-4-pyridyl)-2-methylthioimidazole], the half-maximal inhibitory concentration (IC50) is 4500 nM with TNF-α (Homo sapiens, Table 2) and 460 nM with IL-1β (Homo sapiens, Table 2).

For the origin of these results see patent publication US7253191B2, “2-thio-substituted imidazole derivatives and the use thereof in the pharmaceutical industry” (Merckle GmbH, priority 2001, dated 2007).
